Laboratory results reported in paper PMC11839852, “Preclinical comparison of (radio)lanthanides using mass spectrometry and nuclear imaging techniques: biodistribution of lanthanide-based tumor-targeting agents and lanthanides in ionic form” (European Journal of Nuclear Medicine and Molecular Imaging, 2024).

Tested on: non-tumor-bearing immunocompetent FVB mice
Assay: Dual-isotope SPECT/CT imaging of [177Lu]LuCl3 and [161Tb]TbCl3
Format: in vivo
Conditions: radiolanthanides in chloride form
Method: Dual-isotope SPECT studies with mice were performed as previously reported. Tumor-bearing nude mice (n = 2‒3 for each type of radioconjugate) were injected with 20 MBq (1 nmol) of a mixture of ^177Lu- and ^161Tb-labeled tumor-targeting agents (each 10 MBq, 0.5 nmol) diluted in saline containing 0.05% BSA. Non-tumor-bearing immunocompetent FVB mice (n = 2) were injected with 20 MBq of a mixture of [^177Lu]LuCl3 (10 MBq, 13.8 pmol) and [^161Tb]TbCl3 (10 MBq, 14.3 pmol) diluted with saline containing 0.05% BSA with a final pH value of 4.5. Additional mice (n = 2) were injected with colloids of lutetium-177 and terbium-161 obtained by diluting the chloride salts with PBS of pH 7.4 (Supplementary Material). SPECT/CT images were acquired 1 h, 4 h and 24 h after injection of the activity solutions using a dedicated small-animal SPECT/CT scanner (NanoSPECT/CT, Mediso Medical Imaging Systems, Budapest, Hungary) and the Nucline software (version 1.02, Mediso Ltd., Budapest, Hungary). Counts stemming from the γ-lines of lutetium-177 (112.9 keV ± 10% and 208.4 ± 10%) and the γ-lines and x-rays of terbium-161 (47.7 keV ± 10% and 74.6 keV ± 10%) were simultaneously registered using the respective energy windows for each radionuclide. […]

Bone uptake on SPECT images: higher bone uptake
Compound: [Cl][Lu]([Cl])[Cl] [[^177Lu]LuCl3]
